# Experimental data: PubChem BioAssay AID2060486 (Molecular Pharmacology Branch, DTP, NCI, 2025)
# Where “and” joins values, the source holds several entries; their conditions need not be identical. Identical values can stand only once.
# System: IGROV1 complex spheroids (HUVEC, MSC), viability % test/control
# Test: Anticancer human tumor IGROV1 cell line growth inhibition [GQUAD];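 further: spheroids exposed to compounds for 7 days before readout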
# Settings: for viability, T/C: stronger effect = lower value; for IC50: curve of compound
# From the text: DNA G-quadruplex Stabilizer Agents in Combinations in Complex Spheroids
# A high-throughput screen of multi-cell type tumor spheroids was designed to identify active combinations of DNA G-quadruplex stabilizer agents and targeted small molecules. Complex spheroids include a stromal component modeled by human endothelial cells (HUVEC) and fibroblasts modeled by human mesenchymal stem cells (MSCs). The concentration ranges selected for each drug and investigational agent were based upon clinically achievable concentrations if the clinical Cmax of the agent was known.
# Compounds. The drugs and investigational agents: pidnarulex (CX-5461; NSC782164), APTO-253 (NSC789042), BRACO-19 (NSC847499), peposertib (NSC802822), ceralasertib (NSC780249), elimusertib (NSC800525), camonsertib (NSC841442), AZD-1390 (NSC803789), olaparib (NSC753686), talazoparib (NSC767125), ART-558 (NSC835418), sotorasib (NSC818433), MRTX-1133 (NSC836407), SN-38 (NSC673596), topotecan (NSC609699), etoposide (NSC141540), doxorubicin (NSC123127), gemcitabine (NSC613327), 5-fluorouracil (NSC19893), paclitaxel (NSC125973), vemurafenib (NSC761431), panobinostat (NSC761190), R-306465 (JNJ-16241199; NSC773264), adavosertib (NSC754352), TP-3654 (NSC805149), carboplatin (NSC241240), KSQ-4279 (NSC840948), and staurosporine (NSC755774) were obtained from the National Cancer Institute (NCI) Developmental Therapeutics Program Chemical Repository (34). The FDA-approved anticancer drug set is available from the NCI Developmental Therapeutics Program. […] The stock solutions were prepared in dimethyl sulfoxide (DMSO, Sigma-Aldrich, St. Louis, MO, cat. D2650) at 800-fold the tested concentration and stored at -70 degrees C prior to their use. All drugs and investigational agents were tested over a range starting from a high concentration at or near the clinical Cmax and decreasing in half-log increments. If the clinical Cmax for an agent had not been determined, the highest concentration tested was 10 microM.
# 2.3 Cell Culture. All cells were maintained in an incubator at 37 degrees C and 5% CO2 with 95% humidity. The PDC lines were cultured according to standard operating procedures established by the NCI PDMR. All PDCs were thawed and cultured in Matrigel-coated flasks prepared with a working solution of 1X Ham's F-12 nutrient mix, without supplementation (Invitrogen, cat. 11765054), 100 U/mL penicillin-streptomycin (Invitrogen, cat. 15140122), and 2.5% Matrigel (Corning Inc., cat. 354248) for the first three passages. The 857933-349-R-J2-PDC line was cultured in 6C/Colon 1B media, which includes advanced DMEM/F-12 (Thermo Fisher Scientific, cat. 12634028), 10 mM HEPES (Thermo Fisher Scientific, cat. 15630080), 1X GlutaMAX supplement (Thermo Fisher Scientific, cat. 35050061), 0.1 mg/mL primocin (InvivoGen, cat. ant-pm-2), 10% defined fetal bovine serum, heat inactivated (HyClone Laboratories Inc., cat. SH30070.03HI), 50% L-WRN conditioned media (ATCC, cat. CRL-3276), 1.25 mM N-Acetyl-L-cysteine (Sigma-Aldrich, cat. A9165), 10 mM nicotinamide (Sigma-Aldrich, cat. N0636), 1X B-27 supplement (Thermo Fisher Scientific, cat. 17504044), 1X N-2 supplement (Thermo Fisher Scientific, cat. 17502048), 10 microM Y-27632 dihydrochloride (Tocris Bioscience, cat. 1254), and 50 ng/mL human EGF recombinant protein (Thermo Fisher Scientific, cat. PHG0311). The 485176-168-R4-J1-PDC line was cultured in Panc media, which includes all 6C/Colon 1B media components plus 100 ng/mL human FGF-10 (Thermo Fisher Scientific, cat. 100-26), 500 nM SB-431542 (Selleckchem, cat. S1067), and gastrin (Tocris, cat. 3006).
# […]
SMILES,"viability, T/C (compound 0.0316 µM)","viability, T/C (compound 0.1 µM)","viability, T/C (compound 0.316 µM)","viability, T/C (compound 1 µM)","viability, T/C (compound 3.16 µM)","viability, T/C (compound 10 µM)",IC50,"viability, T/C (compound 0.000999 µM)","viability, T/C (compound 0.00316 µM)","viability, T/C (compound 0.00999 µM)","viability, T/C (compound 0.0999 µM)"
C#Cc1c(F)ccc2cc(O)cc(-c3ncc4c(N5CC6CCC(C5)N6)nc(OCC56CCCN5CC(F)C6)nc4c3F)c12 (stereo not given),88.9% and 93.9% and 107%,86.7% and 79.6% and 89.4%,81.5% and 89.6% and 96.4%,87.2% and 88.1% and 95.8%,82% and 85% and 88.4%,51.3% and 49% and 64.6%,> 10000 nM and 9690 nM,,,,
C=CC(=O)N1CCN(c2nc(=O)n(-c3c(C)ccnc3C(C)C)c3nc(-c4c(O)cccc4F)c(F)cc23)C(C)C1 (stereo not given),102% and 105% and 117%,95.2% and 95.3% and 106%,113% and 105% and 110%,93% and 104% and 122%,79.5% and 98.5% and 104%,82.3% and 101% and 92%,> 10000 nM,,,,
C=CCn1c(=O)c2cnc(Nc3ccc(N4CCN(C)CC4)cc3)nc2n1-c1cccc(C(C)(C)O)n1,104% and 89% and 99.3%,65.7% and 69.2% and 68.7%,13.4% and 17.4% and 11.9%,3.03% and 3.13% and 2.69%,2.56% and 2.47% and 2.43%,1.88% and 1.86% and 2.35%,141 nM and 153 nM and 146 nM,,,,
CC(=O)O[C@H]1C(=O)[C@@]2(C)[C@H]([C@H](OC(=O)c3ccccc3)[C@]3(O)C[C@H](OC(=O)[C@H](O)[C@@H](NC(=O)c4ccccc4)c4ccccc4)C(C)=C1C3(C)C)[C@]1(OC(C)=O)CO[C@@H]1C[C@@H]2O,5.95% and 6.39% and 7.02%,6.41% and 7.03% and 6.33%,5.74% and 6.73% and 6.26%,5.25% and 5.94% and 5.15%,5.64% and 4.86% and 4.9%,4.25% and 4.95% and 4.52%,< 31.6 nM,,,,
CC(C)(O)C1CCC(Nc2ccc3ncc(-c4cccc(C(F)(F)F)c4)n3n2)CC1 (stereo not given),109% and 102% and 93.8%,101% and 72.6% and 98.9%,104% and 94.5% and 96.9%,78.5% and 77.2% and 75.5%,27% and 35.3% and 27.6%,31.4% and 36.7% and 24.7%,1940 nM and 2140 nM and 1840 nM,,,,
CC(C)n1c(=O)n(C)c2cnc3cc(F)c(-c4ccc(OCCCN5CCCCC5)nc4)cc3c21,91.1% and 96.5% and 97%,87.8% and 82.1% and 91.4%,91.3% and 101% and 92.9%,68.5% and 77.6% and 81.7%,49.1% and 59.8% and 61.3%,16.9% and 16.3% and 16.1%,2820 nM and 4020 nM and 4200 nM,,,,
CC1COCCN1c1cc(-c2ccnn2C)c2ccnc(-c3ccn[nH]3)c2n1 (stereo not given),81.8% and 73% and 68.8%,26.6% and 25.6% and 26.2%,11.2% and 10.4% and 10.8%,7.62% and 7.53% and 5.64%,4.7% and 5.08% and 4.64%,3.56% and 3.83% and 3.46%,61.9 nM and 55.2 nM and 52.7 nM,,,,
CC1COCCN1c1cc(C2(O)CC3CCC(C2)O3)c2cnn(-c3ccn[nH]3)c2n1 (stereo not given),51.5% and 57.1% and 50.6%,16.8% and 21.7% and 20.7%,7.14% and 8.09% and 7.26%,4.84% and 5.33% and 5.42%,2.68% and 4.74% and 3.78%,1.72% and 2.09% and 2.04%,32.6 nM and 39.6 nM and 32.3 nM,,,,
CC1COCCN1c1cc(C2(S(C)(=N)=O)CC2)nc(-c2ccnc3[nH]ccc23)n1 (stereo not given),105% and 96.1% and 78.7%,73.3% and 84.4% and 94.9%,95.4% and 94.3% and 89.6%,59.5% and 44.8% and 50.7%,12.6% and 14.1% and 58.1%,7% and 6.85% and 8.5%,1260 nM and 881 nM and 2970 nM,,,,
CCCS(=O)(=O)Nc1ccc(F)c(C(=O)c2c[nH]c3ncc(-c4ccc(Cl)cc4)cc23)c1F,105% (2×) and 108%,96.1% and 96.3% and 95.1%,106% and 108% and 97.5%,103% and 80.5% and 96.6%,66.4% and 67.2% and 56.1%,21.1% and 13.8% and 16.5%,4800 nM and 4380 nM and 3780 nM,,,,
CC[C@@]1(O)C(=O)OCc2c1cc1n(c2=O)Cc2cc3c(CN(C)C)c(O)ccc3nc2-1,42.3% and 42.6% and 30.4%,,11.4% and 10.2% and 9.99%,,,,24.8 nM and 26.6 nM and 20.1 nM,107% and 86.8% and 96.1%,92.1% and 95.8% and 83%,83.8% and 92.3% and 80.7%,10.7% and 11.3% and 11%
CCc1c2c(nc3ccc(O)cc13)-c1cc3c(c(=O)n1C2)COC(=O)[C@]3(O)CC,8.77% and 9.76% and 9.57%,,1.32% and 1.27% and 1.78%,,,,1 nM and < 0.999 nM,50.7% and 46.3% and 39%,13.2% and 15%,10.7% and 11.2% and 9.68%,4.33% and 4.71% and 5.08%
CN(C)c1ccc(Nc2c3ccc(NC(=O)CCN4CCCC4)cc3nc3cc(NC(=O)CCN4CCCC4)ccc23)cc1,103% [middle of 12 runs],101% [middle of 12 runs],103% [middle of 12 runs],100% [middle of 12 runs],87.4% [middle of 12 runs],52.3% [middle of 12 runs],,,,,
